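All cell lines were grown in 96-well plates and treated with compound for 48 hours. Here, GI50 denotes the concentration required for 50% inhibition of growth.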 Calls of active or inactive are those of the source. Rule as the data show it: active = GI50 up to about 1.1 µM and inactive = higher.
Tests used:
Test in all cases: NCI-60 cell line screen, 48 h
[1] = test system: MDA-N
[2] = test system: HL-60
[3] = test system: MDA-MB-435
[4] = test system: 786-0
[5] = test system: Malme-3M
[6] = test system: SF-268
[7] = test system: T47D
[8] = test system: TK-10
[9] = test system: NCI-H460
[10] = test system: HT-29
[11] = test system: K562
[12] = test system: RXF 393
[13] = test system: SR
[14] = test system: UACC-62
[15] = test system: SNB-19
[16] = test system: CAKI-1
[17] = test system: OVCAR-4
[18] = test system: CCRF-CEM
[19] = test system: RPMI-8226
[20] = test system: NCI-H226

Compound	GI50 [1]	GI50 [2]	GI50 [3]	GI50 [4]	GI50 [5]	GI50 [6]	GI50 [7]	GI50 [8]	GI50 [9]	GI50 [10]	GI50 [11]	GI50 [12]	GI50 [13]	GI50 [14]	GI50 [15]	GI50 [16]	GI50 [17]	GI50 [18]	GI50 [19]	GI50 [20]
COC(=O)C(=O)c1cc2ccccc2n1S(=O)(=O)c1ccccc1	> 100 µM (inactive)	> 100 µM (inactive)	> 100 µM (inactive)	> 100 µM (inactive)	> 100 µM (inactive)	> 100 µM (inactive)	> 100 µM (inactive)	> 100 µM (inactive)	> 100 µM (inactive)	> 100 µM (inactive)	> 100 µM (inactive)	> 100 µM (inactive)	> 100 µM (inactive)	> 100 µM (inactive)	> 100 µM (inactive)	> 100 µM (inactive)	> 100 µM (inactive)	> 100 µM (inactive)		
CCOC1=NC(O)c2cccn2-c2sccc21 (stereo not given)	> 100 µM (inactive)		> 100 µM (inactive)	> 100 µM (inactive)	> 100 µM (inactive)	> 100 µM (inactive)	> 100 µM (inactive)	82.4 µM (inactive)	> 100 µM (inactive)	> 100 µM (inactive)	57.8 µM (inactive)	> 100 µM (inactive)	34.2 µM (inactive)	> 100 µM (inactive)	> 100 µM (inactive)	> 100 µM (inactive)	> 100 µM (inactive)		26.7 µM (inactive)	
O=[N+]([O-])c1ccc(/N=N\c2c(O)c(S(=O)(=O)O)cc3cc(S(=O)(=O)O)ccc23)cc1	> 100 µM (inactive)	> 100 µM (inactive)	> 100 µM (inactive)	> 100 µM (inactive)	> 100 µM (inactive)		> 100 µM (inactive)	> 100 µM (inactive)	> 100 µM (inactive)	> 100 µM (inactive)	> 100 µM (inactive)		> 100 µM (inactive)	> 100 µM (inactive)	> 100 µM (inactive)	> 100 µM (inactive)	> 100 µM (inactive)	> 100 µM (inactive)	> 100 µM (inactive)	> 100 µM (inactive)
C/C(=N\NC(=S)N1CCCC1)c1nc2cccnc2[nH]1	0.979 µM (active)	0.162 µM (active)	0.416 µM (active)	0.177 µM (active)	0.583 µM (active)	0.185 µM (active)	0.432 µM (active)	0.557 µM (active)	0.0612 µM (active)	0.394 µM (active)	0.349 µM (active)		0.202 µM (active)	0.259 µM (active)	0.37 µM (active)	0.37 µM (active)	0.302 µM (active)	0.0638 µM (active)	0.553 µM (active)	0.277 µM (active)
O=c1c2nc3ccccc3c(=O)n2ncn1-c1ccccc1Cl	> 100 µM (inactive)	> 100 µM (inactive)	> 100 µM (inactive)	> 100 µM (inactive)	> 100 µM (inactive)	> 100 µM (inactive)	> 100 µM (inactive)	> 100 µM (inactive)	> 100 µM (inactive)	> 100 µM (inactive)	> 100 µM (inactive)		> 100 µM (inactive)	> 100 µM (inactive)	> 100 µM (inactive)	> 100 µM (inactive)	> 100 µM (inactive)	> 100 µM (inactive)	> 100 µM (inactive)	> 100 µM (inactive)
COC(=O)C1Cc2ccc3c(c2C1=O)CCCC3 (stereo not given)	> 100 µM (inactive)	> 100 µM (inactive)	> 100 µM (inactive)	> 100 µM (inactive)	> 100 µM (inactive)	> 100 µM (inactive)	23.2 µM (inactive)	> 100 µM (inactive)	> 100 µM (inactive)	> 100 µM (inactive)	22.2 µM (inactive)		26.7 µM (inactive)	81.1 µM (inactive)	> 100 µM (inactive)	> 100 µM (inactive)	> 100 µM (inactive)	39.2 µM (inactive)	24.7 µM (inactive)	92.9 µM (inactive)

Reference: ChEMBL document CHEMBL1201862, “PubChem BioAssay data set” (2004)
